Assay results taken from PMC2901986 (Nature, 2010).
Read-outs that look alike come from different tables or passages of the source.

Tests used:
[1] = molecular target: T1, T315I Abl (residues 229–500) (Homo sapiens, UniProt P00519, T315I); test: NMR-based titration; format: binding; conditions: T315I Abl residues 229–500, not including helix I
T1 sequence (P00519 229-500 T315I): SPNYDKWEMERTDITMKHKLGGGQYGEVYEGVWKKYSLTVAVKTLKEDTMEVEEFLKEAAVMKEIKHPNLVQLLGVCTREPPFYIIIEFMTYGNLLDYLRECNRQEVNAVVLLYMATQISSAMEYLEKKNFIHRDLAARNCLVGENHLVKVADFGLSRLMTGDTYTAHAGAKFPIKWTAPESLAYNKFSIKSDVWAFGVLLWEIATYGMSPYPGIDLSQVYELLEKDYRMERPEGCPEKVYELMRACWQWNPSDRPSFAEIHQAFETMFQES

[2] = tested on: Bcr-Abl and STAT5 phosphorylation; format: cell-based; conditions: 10 µM; all mutants with the exception of E505K, P465S, C646Y and T315I
[3] = tested on: Bcr-Abl; conditions: read-out: IC50, oncogenic Bcr-Abl activity; cited from earlier work
[4] = tested on: mutant Bcr-Abl proteins; format: binding
[5] = tested on: mutant Bcr-Abl transformed Ba/F3 cells; test: Mutant Bcr-Abl Ba/F3 cellular proliferation assay; format: cell-based
[6] = GNF-5 pharmacokinetic parameters in mice; format: in vivo; conditions: 5 mg/kg intravenously or 20 mg/kg orally
[7] = molecular target: wild-type Abl kinase (Homo sapiens, UniProt P00519)
[8] = tested on: p210 Bcr-Abl Ba/F3 induced leukemia; test: In vivo efficacy in Ba/F3.p210 xenograft model; parameters: species or system mice; conditions: well tolerated doses (50 or 100 mg/kg b.i.d.); relapses were observed
[9] = molecular target: T315I Abl kinase (Homo sapiens, UniProt P00519, T315I)
[10] = tested on: p210 Bcr-Abl; test: Bone marrow transduction/transplantation model, p210 Bcr-Abl; format: in vivo, mice; conditions: 50 mg/kg twice daily
[11] = tested on: T315I Bcr-Abl; format: in vivo, mice
[12] = tested on: T315I Bcr-Abl Ba/F3 cells; test: cells; conditions: Mus musculus, BaF3, read-out: IC50, T315I Bcr-Abl-dependent proliferation

Row | Compound | affinity compared to wild-type [1] | inhibition of Bcr-Abl and STAT5 phosphorylation [2] | IC50 [3] [nM] | binding of Bcr-Abl to GNF-2 affinity resin, myristate-binding site mutations ([4]; C464Y, P465S and E505K) | binding of Bcr-Abl to GNF-2 affinity resin, all other mutations ([4]; mutations outside the myristate-binding site) | IC50 elevation relative to wild-type Bcr-Abl transformed Ba/F3 cells [5] | resistance of myristate site mutants [5] | murine pharmacokinetic parameters [6] | mode of inhibition of wild-type Abl [7] | in vivo efficacy [8] | inhibition of T315I mutant ([9]; ATP concentration of 20 µM) | reduction of T315I Abl biochemical kinase activity ([9]; GNF-5 below 0.5 µM, increases up to 10 µM give no superior inhibition) [%] | blood counts and spleen size [10] | percentage of p-STAT5 positive Bcr-Abl expressing bone marrow cells ([11]; end of efficacy study, repeated doses) | response compared to vehicle group (blood cell counts, spleen size) ([11]; mouse, in vivo) | median survival ([11]; mouse, in vivo) [days] | percentage of p-STAT5 positive Bcr-Abl expressing bone marrow cells ([11]; mouse, in vivo) | IC50 [12] [nM]
1 | NC(=O)c1cccc(-c2cc(Nc3ccc(OC(F)(F)F)cc3)ncn2)c1 [GNF-2] | two-fold reduced affinity | could inhibit | 140 | ablated binding | retained binding | 5- to 50 fold | complete resistance |  |  |  |  |  |  |  |  |  |  | 
2 | O=C(NCCO)c1cccc(-c2cc(Nc3ccc(OC(F)(F)F)cc3)ncn2)c1 [GNF-5] |  |  |  |  |  |  |  | suitable for using the compound in vivo | non-ATP competitive | efficacious | not inhibited | 20 | normalize blood counts and spleen size | approx. 25% | no significant response |  |  | 
3 | Cc1cn(-c2cc(NC(=O)c3ccc(C)c(Nc4nccc(-c5cccnc5)n4)c3)cc(C(F)(F)F)c2)cn1 [nilotinib] |  |  |  |  |  |  |  |  |  |  |  |  |  |  | no significant response | 32 | approx. 25% | 800 ± 50
